Test results published in article PMC10041525, “New Dual Inhibitors of Bacterial Topoisomerases with Broad-Spectrum Antibacterial Activity and In Vivo Efficacy against Vancomycin-Intermediate Staphylococcus aureus” (Journal of Medicinal Chemistry, 2023).
Values after ≈ are worked out from the molar mass of the structure shown. Read-outs that look alike come from different tables or passages of the source.

Columns and labels:
in vitro = conditions: mouse
Description: The assay was performed in cryopreserved mouse hepatocytes. First, the vials were thawed, the suspension added to “thawing media” and centrifuged to pellet the hepatocytes. The cell pellet was resuspended in Williams medium E (Invitrogen A1217601). […] A mixture of midazolam, diclofenac, and bufuralol at 1 μM was used as a positive control. The incubation was carried out on a heater-shaker at 37 °C, in a 24-well Picoplate (round bottom, PerkinElmer), with total incubation volume of 700 μL. […] The plate was incubated at 37 °C for 60 s. A zero sample was taken by removing 100 μL to a 96-well plate, and the reaction was quenched by adding 100 μL of acetonitrile with 50 nM warfarin as the internal standard. […] The LC–MS/MS method was the same as described above in Chapter LogD Determination.

[1] = mitochondrial toxicity glu/gal assay; type: cell-based; conditions: human, read-out: cell viability (ATP), % of control
Description: (§1) HepG2 cells were seeded in two 96-well plates at a density of 50,000 cells per well in 100 μL of growth medium. For the first plate, the growth medium contained glucose and for the second plate, it contained galactose. Cells were incubated overnight in a 5% CO2 atmosphere at 37 °C and allowed to attach onto the wells. […] The medium contained positive control (Rotenone). […] Luminescence was measured with Tecan Infinite 200 pro luminometer, and the values from each well treated with compound were compared to the values given by the negative control (medium only). The inhibition of mitochondrial function was determined by comparing ATP levels in galactose and glucose exposed cells. […]

HepG2 cells = assay: mitochondrial toxicity glu/gal assay; type: cell-based; conditions: human
Description: as §1

physchem = conditions: pH 7.4
Description: 0.5 mL of 67 mM phosphate
(§8) in a rotational shaker (400 rpm) at 23 °C. After the incubation an aliquot of 200 µL was
(§9) 1 µL of the supernatant was transferred to 96-well plate in triplicate wells, diluted 100×
(§10) with acetonitrile/H2O (60/40) containing 50 nM warfarin as internal standard and analyzed
(§11) performed comparing to a separately constructed standard series (10 nM to 1000 nM).
(§12) shaker (900 rpm) at 37 °C. After the incubation an aliquot of 200 µL was transferred to a
(§13) conical glass insert and centrifuged for 30 min at 10 000 × g at 37 °C. The supernatant was
(§14) transferred to a new HPLC vial appropriately diluted (100×, 1000×, 5000×) with
(§15) acetonitrile/H2O (50/50) containing 50 nM warfarin as internal standard and analyzed by
(§16) performed comparing to a separately constructed standard curve between 3 nM to 20000

[2] = tested on: Chinese hamster ovary K1 cells; assay: in vitro micronucleus test
[3] = thermodynamic solubility in phosphate buffer, LC-MS/MS; conditions: 100 mM phosphate buffer pH 7.4, 24 h, 37 °C
Description: 0.5 mL of 67 mM phosphate
as §8, §9, §10, §11, §12, §13, §14, §15, §16

A. baumannii ATCC 19606 = assay: MIC broth microdilution (CLSI); type: cell-based; conditions: Acinetobacter baumannii, ATCC19606; ATCC 19606 used for 7l, 8b, 14, 16b, 16c; read-out: MIC
Description: (§2) MICs (Tables 1 and S1–S3) were determined with a standard serial broth microdilution technique according to Clinical and Laboratory Standards Institute (CLSI) guidelines.[45] Cation-adjusted Mueller Hinton broth 2 (MHBII) was used for bacterial growth under standard laboratory conditions and for antimicrobial susceptibility tests. MHBII broth was prepared by dissolving 22 g of MHBII powder [containing beef extract (3 g), acid hydrolysate of casein (17.5 g), and starch (1.5 g); Becton Dickinson and Co.] in 1 L of water. To prepare MHBII agar, 14 g of agar (Bacto; Molar Chemicals) was added to 1 L of broth.
(§3) Bacterial strains were inoculated onto MHBII agar plates and grown overnight at 37 °C. Next, three individual colonies from each strain were inoculated into 1 mL of MHBII medium and propagated at 37 °C overnight, with agitation at 250 rpm. For Enterococcus sp., the cells were plated in brain–heart infusion [(BHI) medium] agar plates, and BHI broth was used to determine the MICs. […] The highest final DMSO concentration in the experiments was 0.64% (in the case of the 64 μg/mL concentration of the inhibitor). Following the dilutions, each well was seeded with 5 × 10^4 bacterial cells (in 100 μL final volume). Each measurement was performed in three parallel replicates, and to avoid possible edge effects in the microwell plates, the outside rows (A, H) were filled with sterile medium. Following the inoculations, the plates were covered with the lids and wrapped in polyethylene plastic bags, to minimize evaporation but to allow O2 transfer. The plates were incubated at 37 °C under continuous shaking at 150 rpm for 18 h. After incubation, the OD600 of each well was measured using a microplate reader (Synergy 2; Biotek). The MICs were defined as the antibiotic concentrations which inhibited the growth of the bacterial cultures; that is, the drug concentration where the average OD600 increment of the three technical replicates was below 1.5-fold the background OD increment.
(§4) cMIC, minimum inhibitory concentration
(§5) Bacterial strains that were used: S. aureus ATCC 29213, S. aureus (MRSA) ATCC 43300, S. aureus (VISA) ATCC 700699, E. faecalis ATCC 29212, E. faecium ATCC 700221,
(§6) E. coli ATCC 25922, P. aeruginosa ATCC 27853 (PAO1 for compounds 7l, 8b, 14), A. baumannii ATCC 17978 (ATCC 19606 for compounds 7l, 8b, 14), K. pneumoniae ATCC
(§7) Measurements were performed according to the Clinical and Laboratory Standards Institute guidelines, with three independent measurements.

K. pneumoniae ATCC 13883 = assay: MIC broth microdilution (CLSI); type: cell-based; conditions: Klebsiella pneumoniae, ATCC13883; ATCC 13883 used for 7l, 8b, 14, 16b, 16c
Description: as §2, §3, §4, §5, §6, §7

P. aeruginosa PAO1 = assay: MIC broth microdilution (CLSI); type: cell-based; conditions: Pseudomonas aeruginosa; PAO1 used for 7l, 8b, 14, 16b, 16c
Description: as §2, §3, §4, §5, §6, §7

H. influenzae ATCC 49766 = tested on: H. influenzae ATCC 49766; parameters: method as in earlier work; conditions: QC range for H. influenzae ATCC 49766, ref CLSI; cited from earlier work

Compound: Cc1[nH]c(C(=O)Nc2nc3c(N4CCOCC4)cc(C(=O)O)cc3s2)c(Cl)c1Cl [7a, 2-(3,4-Dichloro-5-methyl-1H-pyrrole-2-carboxamido)-4-morpholinobenzo[d]thiazole-6-carboxylic Acid]
- ClH (pred.) (in vitro): 0.05 mL/min
- Clint (pred. in vivo) (in vitro; hepatocytes): 2.1 mL/min
- half-life at 1.5 h, 1 µM (in vitro; hepatocytes): 2.67 h
- hepatocyte CLint at 1.5 h, 1 µM (in vitro; hepatocytes): 9 µL/min/1e6 cells
- viability at 10 µM ([1]; galactose): 98%
- viability at 50 µM ([1]; galactose): 98%
- viability at 100 µM ([1]; galactose): 97%
- viability at 300 µM ([1]; galactose): 98%
- viability at 600 µM ([1]; galactose): 94%
- viability at 1000 µM ([1]; galactose): 83%
- viability at 10 µM ([1]; glucose): 109%
- viability at 50 µM ([1]; glucose): 107%
- viability at 100 µM ([1]; glucose): 105%
- viability at 300 µM ([1]; glucose): 99%
- viability at 600 µM ([1]; glucose): 95%
- viability at 1000 µM ([1]; glucose): 79%
- mitotoxic concentration (not mitotoxic up to) (HepG2 cells): > 1000 µM
- solubility thermodynamic at 24 h (physchem): 168 µM (≈ 76.5 µg/mL)
- % Micronuclei ([2]; with S9, 25 µM): 2.7%
- No. binucleate cells ([2]; with S9, 25 µM): 1707
- % Cytostasis ([2]; with S9, 50 µM): 1.4%
- % Micronuclei ([2]; with S9, 50 µM): 4.5%
- No. binucleate cells ([2]; with S9, 50 µM): 1296
- % Cytostasis ([2]; with S9, 100 µM): tox
- genotoxic concentration (no genotoxicity up to) ([2]; with S9 activation): > 50 µM
- % Micronuclei ([2]; without S9, 6.25 µM): 2.8%
- No. binucleate cells ([2]; without S9, 6.25 µM): 3160
- % Micronuclei ([2]; without S9, 25 µM): 2.5%
- No. binucleate cells ([2]; without S9, 25 µM): 2644
- % Cytostasis ([2]; without S9, 50 µM): 0.1%
- % Micronuclei ([2]; without S9, 50 µM): 4.4%
- No. binucleate cells ([2]; without S9, 50 µM): 1687
- % Cytostasis ([2]; without S9, 100 µM): 40.8%
- % Micronuclei ([2]; without S9, 100 µM): 7%
- No. binucleate cells ([2]; without S9, 100 µM): 642
- % Micronuclei ([2]; without S9, […]): 2.7%
- genotoxic concentration (no genotoxicity up to) ([2]; without metabolic activation): > 100 µM
- thermodynamic solubility, second method [3]: 167.9 µM (≈ 76.4 µg/mL)

Compound: Cc1[nH]c(C(=O)Nc2nc3c(N4CCOCC4)cc(C(=O)O)cc3s2)cc1F [16b, 2-(4-Fluoro-5-methyl-1H-pyrrole-2-carboxamido)-4-morpholinobenzo[d]thiazole-6-carboxylic Acid]
- MIC (A. baumannii ATCC 19606): > 64 µg/mL
- MIC (K. pneumoniae ATCC 13883): > 64 µg/mL
- MIC (P. aeruginosa PAO1): > 64 µg/mL

Compound: C[C@@H](O)[C@H]1C(=O)N2C(C(=O)O)=C(SCCNC=N)C[C@H]12 [Imipenem, imipenem]
- MIC, CLSI Range (H. influenzae ATCC 49766): 0,25 - 1 µg/mL
